Test: xn = mol fraction of the nth substance listed
Settings: 100 kPa

CC[N+](CC)(CC)CC.O=S(=O)([O-])C(F)(F)F + CC#N
electrical conductivity [S/m]
Settings | x1 = 0.02 | x1 = 0.05 | x1 = 0.08 | x1 = 0.0997 | x1 = 0.1199 | x1 = 0.1498 | x1 = 0.2 | x1 = 0.25 | x1 = 0.2995
293.15 K | – | – | 4.63 | 4.72 | 4.54 | 4.22 | 3.51 | 2.89 | 2.58
298.15 K | 2.66 | 4.19 | 4.71 | – | 4.7 | 4.38 | 3.62 | 3.14 | 2.82
303.15 K | 2.77 | 4.39 | 4.84 | 5 | 4.96 | 4.48 | 3.78 | 3.39 | 3.08
308.15 K | 2.87 | 4.57 | 5.08 | 5.24 | 5.22 | – | 4.06 | 3.65 | 3.35
313.15 K | 2.97 | 4.76 | 5.31 | 5.49 | 5.48 | 5.04 | 4.34 | 3.91 | 3.62
318.15 K | 3.08 | – | 5.54 | 5.73 | 5.74 | 5.32 | 4.61 | 4.17 | –
323.15 K | 3.18 | 5.11 | 5.77 | 5.98 | 5.99 | 5.6 | 4.89 | 4.44 | –
328.15 K | 3.28 | 5.29 | 6 | 6.22 | 6.25 | 5.88 | 5.17 | 4.7 | 4.44
333.15 K | 3.38 | 5.46 | 6.23 | 6.45 | 6.5 | 6.15 | – | – | –
338.15 K | 3.47 | 5.64 | 6.45 | 6.69 | 6.76 | 6.42 | 5.72 | 5.22 | 5.01
343.15 K | 3.58 | 5.81 | 6.67 | 6.92 | 7.02 | 6.7 | 6 | 5.5 | 5.28
348.15 K | – | 5.97 | – | 7.16 | 7.27 | – | 6.26 | 5.77 | 5.55
